Measurements published in ChEMBL document CHEMBL3745711, “Discovery of potent and orally bioavailable inhibitors of Human Uric Acid Transporter 1 (hURAT1) and binding mode prediction using homology model” (Bioorg Med Chem Lett, 2016).

Assays:
[1] = target: T1, Solute carrier family 22 member 12 (Homo sapiens, UniProt Q96S37); test: Inhibition of human URAT1 expressed in HEK293 cells assessed as [14C]uric acid uptake after 12 mins by scintillation counter; type: cell-based
T1 sequence (Q96S37 whole entry): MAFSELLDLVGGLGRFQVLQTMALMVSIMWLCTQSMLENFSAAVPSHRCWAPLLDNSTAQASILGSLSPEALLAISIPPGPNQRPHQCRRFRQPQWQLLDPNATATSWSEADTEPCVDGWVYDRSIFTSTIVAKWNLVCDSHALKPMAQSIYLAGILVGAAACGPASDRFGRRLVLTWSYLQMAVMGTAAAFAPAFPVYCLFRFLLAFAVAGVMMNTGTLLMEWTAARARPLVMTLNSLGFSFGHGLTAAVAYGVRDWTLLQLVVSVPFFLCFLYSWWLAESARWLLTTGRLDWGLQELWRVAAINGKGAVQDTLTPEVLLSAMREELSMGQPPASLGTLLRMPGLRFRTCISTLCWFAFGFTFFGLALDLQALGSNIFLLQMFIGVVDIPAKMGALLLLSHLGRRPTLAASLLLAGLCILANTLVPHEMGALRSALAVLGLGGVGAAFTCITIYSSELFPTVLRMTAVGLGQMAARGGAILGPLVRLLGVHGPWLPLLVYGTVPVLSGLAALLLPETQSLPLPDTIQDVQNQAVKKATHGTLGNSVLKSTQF

[2] = Clearance in Sprague-Dawley rat at 3 mg/kg, po by LC-MS/MS analysis; type: ADME, organism-based; details: in vivo
[3] = Intrinsic clearance in rat liver microsomes; type: ADME; details: read-out: CLH
[4] = Half life in monkey liver microsomes; type: ADME, Macaca mulatta; details: rhesus monkey
[5] = Intrinsic clearance in human liver microsomes; type: ADME; details: read-out: CLH
[6] = Half life in human liver microsomes; type: ADME
[7] = Half life in Sprague-Dawley rat at 3 mg/kg, po by LC-MS/MS analysis; type: ADME, organism-based; details: in vivo
[8] = Half life in rat liver microsomes; type: ADME
[9] = Cmax in Sprague-Dawley rat at 3 mg/kg, po by LC-MS/MS analysis; type: ADME, organism-based; parameters: dose 3 mg/kg, route oral; details: in vivo
[10] = Apparent volume of distribution in Sprague-Dawley rat at 3 mg/kg, po by LC-MS/MS analysis; type: ADME, organism-based; details: in vivo, read-out: Vz/F
[11] = Intrinsic clearance in monkey liver microsomes; type: ADME, Macaca mulatta; details: rhesus monkey, read-out: CLH
[12] = Tmax in Sprague-Dawley rat at 3 mg/kg, po by LC-MS/MS analysis; type: ADME, organism-based; details: in vivo
[13] = AUC (0 to t) in Sprague-Dawley rat at 3 mg/kg, po by LC-MS/MS analysis; type: ADME, organism-based; details: in vivo
[14] = Plasma protein binding in human; type: ADME, cell-free; details: read-out: PPB (converted)

`O=C(O)C1(Sc2ccnc3ccc(Br)cc23)CCCC1` showed an IC50 [1] of 324 nM.
For `O=C(O)C1(Sc2ccnc3ccc(OCCO)cc23)CCC1`, the IC50 [1] was 1890 nM.
With `O=C(O)C1(Sc2ccnc3ccc(C(F)(F)F)cc23)CCC1` the CL/F [2] was 2 mL/min/kg, the microsomal CLint [3] was 4.7 µL/min/mg and the half-life [4] was 3.15 h. It also gave a microsomal CLint [5] of 3.3 µL/min/mg, a half-life [6] of 4.62 h and a half-life [7] of 8.8 h. It also gave a half-life [8] of 3.08 h, a Cmax [9] of 2700 ng/mL and a Vd/F [10] of 1.2 L/kg. For the same molecule, the microsomal CLint [11] was 4.9 µL/min/mg, the Tmax [12] was 1 h and the AUC(0-t) [13] was 38200 ng·h/mL. It also gave a fraction unbound [14] of 0.001.
`CC(=O)Nc1ccc2nccc(SC3(C(=O)O)CCC3)c2c1` gave an IC50 [1] greater than 10000 nM.
In the case of `O=C(O)C1(Sc2ccnc3ccc(Br)cc23)CC1`, the IC50 [1] is reported as 352 nM.
In the case of `O=C(O)C1(Sc2ccnc3ccc(-c4cccc(F)c4)cc23)CCC1`, the IC50 [1] is reported as 1190 nM.
`N#CCCc1ccc2nccc(SC3(C(=O)O)CCC3)c2c1` showed an IC50 [1] of 2760 nM.
Work on `O=C(O)C1(Sc2ccnc3ccc(-c4ccc(C(F)(F)F)cc4)cc23)CCC1` yielded an IC50 [1] of 1750 nM.
In the case of `Nc1ccc2nccc(SC3(C(=O)O)CCC3)c2c1`, the IC50 [1] is reported as 1790 nM.
For `O=C(O)C1(Sc2ccnc3cccnc23)CCC1`, the IC50 [1] was greater than 10000 nM.
Work on `O=C(O)C1(Sc2ncnc3ccccc23)CCC1` yielded an IC50 [1] greater than 10000 nM.
